Results from patent US9611248B2, “Chemical compounds” (Syngenta Participations AG, priority 2013, dated 2017).

system: a variety of test species; assay: Post-emergence herbicidal activity; format: in vivo; set-up: key to ABUTH (Abutilon theophrasti) damage score / AMARE (Amaranthus retroflexus) damage score / ALOMY (Alopecurus myosuroides) damage score / ECHCG (Echinochloa crus-galli) damage score / ZEAMX (Zea mays) damage score / SOLNI (Solanum nigrum) damage score: 0 = no damage to plant, 5 = total damage to plant; conditions: rate 250 g/ha, evaluated after 13 days
Method: Seeds of a variety of test species were sown in standard soil in pots. After 8 days cultivation (post-emergence) under controlled conditions in a glasshouse (at 24/16° C., day/night; 14 hours light; 65% humidity), the plants were sprayed with an aqueous spray solution derived from the formulation of the technical active ingredient in acetone/water (50:50) solution containing 0.5% Tween 20 (polyoxyethelyene sorbitan monolaurate, CAS RN 9005-64-5). The test plants were then grown in a glasshouse under controlled conditions (at 24/16° C., day/night; 14 hours light; 65% humidity) and watered twice daily. After 13 days, the test was evaluated (5=total damage to plant; 0=no damage to plant, NC=not captured).

| Structure (SMILES) | ABUTH (Abutilon theophrasti) damage score | ALOMY (Alopecurus myosuroides) damage score | AMARE (Amaranthus retroflexus) damage score | ECHCG (Echinochloa crus-galli) damage score | SETFA (Setaria faberi) damage score | ZEAMX (Zea mays) damage score |
| --- | --- | --- | --- | --- | --- | --- |
| COC1=C(C)C(=O)N(c2cc(C(F)(F)F)c(OCc3ccco3)cn2)C1O (stereo not drawn) [AD86] | 4 | 2 | 5 | 1 | 3 | 0 |
| COC1=C(C)C(=O)N(c2cc(C(F)(F)F)c(OC3CCC3)cn2)C1O (stereo not drawn) [AD75] | 5 | 4 | 5 | 2 | 4 | 1 |

same assay, conditions: rate 1000 g/ha, evaluated after 13 days

| Structure (SMILES) | ABUTH (Abutilon theophrasti) damage score | ALOMY (Alopecurus myosuroides) damage score | AMARE (Amaranthus retroflexus) damage score | ECHCG (Echinochloa crus-galli) damage score | SETFA (Setaria faberi) damage score | ZEAMX (Zea mays) damage score |
| --- | --- | --- | --- | --- | --- | --- |
| CCCCOc1cnc(N2C(=O)C(C)=C(OC)C2O)cc1C(F)(F)F (stereo not drawn) [AD78] | 4 | 3 | 5 | 5 | 5 | 2 |
| COC1=C(C)C(=O)N(c2cc(C(F)(F)F)ccn2)C1O (stereo not drawn) [AD34] | 5 | 5 | 5 | 5 | 5 | 0 |
| C=CCOC1=C(C)C(=O)N(c2cc(C(F)(F)F)ccn2)C1O (stereo not drawn) [AD42] | 5 | 4 | 5 | 5 | 5 | 2 |
| CC1=C(Br)C(O)N(c2cc(C(F)(F)F)ccn2)C1=O (stereo not drawn) [AB1] | 3 | 2 | 5 | 3 | 4 | 0 |
| CCC/C=C/c1cnc(N2C(=O)C(C)=C(OC)C2O)cc1C(F)(F)F (stereo not drawn) [AD13] | 5 | 5 | 5 | 5 | 5 | 1 |
| CCc1cc(N2C(=O)C(C)=C(Cl)C2O)ncc1Br (stereo not drawn) [AA50] | 3 | 2 | 2 | 3 | 3 | 1 |
| CCC1=C(Cl)C(O)N(c2cc(C(C)(C)C#N)ncn2)C1=O (stereo not drawn) [CA3] | 1 | 0 | 1 | 0 | 0 | 0 |
| CCC1=C(Br)C(O)N(c2cc(C(C)(C)C#N)ncn2)C1=O (racemic) [CB2] | 3 | 1 | 3 | 1 | 0 | 0 |
| COc1nnc(N2C(=O)C(C)=C(Br)C2O)cc1C (stereo not drawn) [BB1] | 1 | 0 | 0 | 1 | 2 | 0 |
| COC1=C(C)C(=O)N(c2cc(C(F)(F)F)c(Cl)cn2)C1O (stereo not drawn) [AD30] | 5 | 5 | 5 | 5 | 4 | 1 |
| COC1=C(C)C(=O)N(c2cc(C(F)(F)F)c(OCC(C)C)cn2)C1O (stereo not drawn) [AD56] | 5 | 5 | 5 | 5 | 5 | 0 |
| COC1=C(C)C(=O)N(c2nccc(C(C)(C)C)n2)C1O (racemic) [DD1] | 4 | 4 | 4 | 5 | 4 | 1 |
| COC1=C(C)C(=O)N(c2cc(C)c(-c3ccccc3OC)cn2)C1O (stereo not drawn) [AD110] | 5 | 2 | 5 | 1 | 2 | 0 |
| CC1=C(Cl)C(O)N(c2cc(C)ccn2)C1=O (stereo not drawn) [AA13] | 5 | 3 | 4 | 4 | 4 | 0 |
| CCc1cc(N2C(=O)C(C)=C(OC)C2O)ncc1-c1ccoc1 (stereo not drawn) [AD102] | 4 | 3 | 5 | 3 | 4 | 1 |
| COC1=C(C)C(=O)N(c2cc(OC(F)(F)F)ccn2)C1O (stereo not drawn) [AD39] | 4 | 4 | 2 | 4 | 4 | 0 |
| COC1=C(C)C(=O)N(c2cc(C(F)(F)F)c(OCc3ccccc3)cn2)C1O (stereo not drawn) [AD82] | 4 | 2 | 5 | 3 | 5 | 1 |
| COC1=C(C)C(=O)N(c2cc(C)c(-c3ccc4c(c3)OCO4)cn2)C1O (stereo not drawn) [AD112] | 4 | 2 | 5 | 3 | 3 | 1 |
| COC1=C(C)C(=O)N(c2cc(C(F)(F)F)c(OCCCc3ccccc3)cn2)C1O (stereo not drawn) [AD84] | 2 | 1 | 5 | 2 | 4 | 1 |
| CC1=C(Cl)C(O)N(c2cc(C)c(-c3ccsc3)cn2)C1=O (stereo not drawn) [AA48] | 4 | 1 | 5 | 3 | 4 | 0 |
| COC1=C(C)C(=O)N(c2cc(C(F)(F)F)c(-c3cccc(F)c3)cn2)C1O (stereo not drawn) [AD133] | 5 | 2 | 5 | 4 | 4 | 3 |
| COC1=C(C)C(=O)N(c2cc(C(F)(F)F)c(C#C[Si](C)(C)C)cn2)C1O (stereo not drawn) [AD15, 2-hydroxy-3-methoxy-4-methyl-1-[4-(trifluoromethyl)-5-(2-trimethylsilylethynyl)-2-pyridyl]-2H-pyrrol-5-one] | 3 | 3 | 5 | 4 | 5 | 2 |
| CC1=C(Br)C(O)N(c2cc(C(F)(F)F)ncn2)C1=O (stereo not drawn) [CB1] | 1 | 1 | 1 | 1 | 0 | 1 |
| COC1=C(C)C(=O)N(c2cc(C(F)(F)F)c(OCCCF)cn2)C1O (stereo not drawn) [AD79] | 5 | 5 | 5 | 5 | 5 | 2 |
| COC1=C(C)C(=O)N(c2cc(C)c(-c3ccc(OC)cc3)cn2)C1O (stereo not drawn) [AD115] | 5 | 2 | 5 | 1 | 1 | 1 |
| CC1=C(Cl)C(O)N(c2cc(C(F)(F)F)c(Cl)cn2)C1=O (stereo not drawn) [AA26] | 1 | 2 | 5 | 3 | 3 | 0 |
| CC1=C(Cl)C(O)N(c2cc(Cl)c(Cl)cn2)C1=O (stereo not drawn) [AA16] | 0 | 1 | 0 | 1 | 3 | 1 |
